Series [1] is described as follows: log P by HPLC on reversed-phase columns (C 18), method [a], acidic range pH 2.3. Format: physicochemical. As to conditions: for log p / log P (pH 2.3): pH 2.3; for chromatographic logP: pH 2.3, log P (pH 2.3). As for the experimental part:
The log P values were measured in accordance with EEC Directive 79/831 Annex V.A8 by HPLC (High Performance Liquid Chromatography) on reversed-phase columns (C 18) using the methods below: [a] The determination was carried out in the acidic range at pH 2.3 using the mobile phases 0.1% aqueous phosphoric acid and acetronitrile linear gradient from 10% acetonitrile to 95% acetronitrile.

Series [2] is described as follows: log P by LC-MS, method [b], acid range pH 2.7. Format: physicochemical. Conditions: pH 2.7. As for the experimental part: The log P values were measured in accordance with EEC Directive 79/831 Annex V.A8 by HPLC (High Performance Liquid Chromatography) on reversed-phase columns (C 18) using the methods below:
[b] The LC-MS determination in the acid range was carried out at pH 2.7 using the mobile phases 0.1% aqueous formic acid and acetonitrile (contains 0.1% formic acid)
linear gradient from 10% acetonitrile to 95% acetonitrile.

Consider `CC1CCC(=O)N1c1cccc(Nc2ncc(Cl)c(NC3CC3)n2)c1` (centres unmarked) [Example 125], for which the log p was 2.59[a]; in series [1] and 2.59[b] in series [2].
As to `COCC(C)Nc1nc(Cl)ncc1C#N` (centres unmarked) [Example V-30, 2-Chloro-4-[(1-methoxypropan-2-yl)-amino]pyrimidine-5-carbonitrile], in series [1], the chromatographic logP (in general, lipophilicity estimated from chromatographic retention) is 1.83.
For the molecule `CNc1nc(Nc2cccc(N3CCCC3=O)c2)ncc1Cl` [Example 38], in series [1], the log p is 1.05[a].
Consider `O=C1OCCN1c1ccc(Nc2ncc(C(F)(F)F)c(Cl)n2)cc1` [VI-4, 3-(4-{[4-Chloro-5-(trifluoromethyl)pyrimidin-2-yl]amino}phenyl)-1,3-oxazolidin-2-one], for which, in series [1], the “log P (pH 2.3)” value is 2.76 and the chromatographic logP amounted to 2.74.
`C[C@@H]1COC(=O)N1c1cccc(N)c1` [(4R)-3-(3-Aminophenyl)-4-methyl-1,3-oxazolidin-2-one] yielded a chromatographic logP in series [1] of 0.27.
`CC(C)C1COC(=O)N1c1cccc(Nc2ncc(Br)c(NC3CC3)n2)c1` (centres unmarked) [Example 45]: in series [1], the log p was 2.24[a].
In series [1], `CCC1CC(C)C(=O)N1c1cccc(N)c1` (centres unmarked) [1-(3-Aminophenyl)-5-ethyl-3-methylpyrrolidin-2-one] yielded a chromatographic logP of 1.31.
The same measure, in the same setting: the figure for `Brc1ccc(Nc2ncc(Br)c(NC3CCC3)n2)cc1` [VII-10, 5-Bromo-N^2-(4-bromophenyl)-N^4-cyclobutylpyrimidine-2,4-diamine] is 3.18; for `Clc1cnc(Nc2ccc(Br)cc2)nc1NC1CC1` [VII-8, N^2-(4-Bromophenyl)-5-chloro-N^4-cyclopropylpyrimidine-2,4-diamine] it is 2.55.
On the same count and under the same terms, next, `FC(F)(F)CNc1nc(Cl)ncc1Cl` [Example V-5, 2,5-Dichloro-N-(2,2,2-trifluoroethyl)pyrimidin-4-amine]: 2.26.
Still for that read-out and setting: next, `Clc1ncc(Cl)c(N2CCC2)n1` [Example V-35, 4-(Azetidin-1-yl)-2,5-dichloropyrimidine]: 2.11.
With `CC1COC(=O)N1c1cccc(Nc2ncc(Cl)c(NC3CCC3)n2)c1` (centres unmarked) [Example 57], in series [1], the log p is 1.81[a].
Same read-out and setting: next, `CC(C)CC1COC(=O)N1c1cccc(Nc2ncc(Cl)c(NC3CCC3)n2)c1` (centres unmarked) [Example 49]: 2.83[a]; `CCC1=C(C)CN(c2cccc(Nc3ncc(Br)c(NC4CC4)n3)c2)C1=O` [Example 232]: 2.42[a].
For `COc1cc(N)cc(N2CCCC2=O)c1` [1-(3-Amino-5-methoxyphenyl)pyrrolidin-2-one], the chromatographic logP in series [1] is 0.6.
Same read-out and setting: the figure for `CC1CC1Nc1nc(Cl)ncc1Cl` (centres unmarked) [Example V-40, 2,5-Dichloro-N-(2-methylcyclopropyl)pyrimidin-4-amine] is 2.53.
On the same count and under the same terms, next, `CC1(C)CC(=O)N(c2cccc([N+](=O)[O-])c2)C1=O` [3,3-Dimethyl-1-(3-nitrophenyl)pyrrolidine-2,5-dione]: 2.01.
On the same count and under the same terms, the figure for `Clc1ncc(Cl)c(NC2COC2)n1` [Example V-29, 2,5-Dichloro-N-(oxetan-3-yl)pyrimidin-4-amine] is 1.31.
In series [1], `COc1cc(NC(=O)CCCCl)cc([N+](=O)[O-])c1` [4-Chloro-N-(3-methoxy-5-nitrophenyl)butanamide] showed a chromatographic logP of 2.46.
On the same count and under the same terms, the figure for `CC(C)[C@@H]1COC(=O)N1c1cccc(N)c1` [(4R)-3-(3-Aminophenyl)-4-isopropyl-1,3-oxazolidin-2-one] is 1.18.
Same read-out and setting: the figure for `CC1CCC(=O)N1c1cccc(N)c1` (centres unmarked) [1-(3-Aminophenyl)-5-methylpyrrolidin-2-one] is 0.52.
Same read-out and setting: the figure for `Brc1cnc(Nc2cccc(I)c2)nc1NC1CC1` [VII-2, 5-Bromo-N^4-cyclopropyl-N^2-(3-iodophenyl)pyrimidine-2,4-diamine] is 3.34.
`CCC(C)Nc1nc(Nc2ccc(N3CCCC3=O)cc2)ncc1Cl` (centres unmarked) [Example 7]: the log p in series [1] was 1.65[a].
In series [1], `Nc1cc(N2C(=O)CCC2=O)ccc1Cl` [1-(3-Amino-4-chlorophenyl)pyrrolidine-2,5-dione] yielded a chromatographic logP of 0.79.
The molecule `CC1CC(Nc2nc(Cl)ncc2Cl)C1` (centres unmarked) [Example V-39, 2,5-Dichloro-N-(3-methylcyclobutyl)pyrimidin-4-amine] showed a chromatographic logP in series [1] of 3.2.
For `O=C1CCCCCN1c1cccc(Nc2ncc(Br)c(NC3CC3)n2)c1` [Example 54], the log p in series [1] was 1.82[a].
In the case of `CCOC(=O)[C@@H]1CCC(=O)N1c1cccc(N)c1` [Ethyl 1-(3-aminophenyl)-5-oxo-L-prolinate], in series [1], the chromatographic logP is 0.84.
On the same count and under the same terms, next, `Nc1cccc(N2C(=O)CCC2C(F)(F)F)c1` (centres unmarked) [1-(3-Aminophenyl)-5-(trifluoromethyl)pyrrolidin-2-one]: 1.07; `FC(F)(F)Oc1ccc(Nc2ncc(Cl)c(NC3CC3)n2)cc1Br` [VII-3, 5-Chloro-N^2-[3-bromo-4-(trifluoromethoxy)phenyl]-N^4-cyclopropylpyrimidine-2,4-diamine]: 3.99; `Nc1ccc(F)c(N2CCCC2=O)c1` [1-(5-Amino-2-fluorophenyl)pyrrolidin-2-one]: 0.31.
On to `FC(F)CNc1nc(Cl)ncc1Cl` [Example V-2, 2,5-Dichloro-N-(2,2-difluoroethyl)pyrimidin-4-amine], for which, in series [1], the chromatographic logP amounted to 1.96.
For `O=C1CCCCCN1c1cccc(Nc2ncc(Cl)c(NC3CC3)n2)c1` [Example 55], the log p in series [1] is 1.7[a].
As for `CC1CC1Nc1nc(Cl)ncc1C(F)(F)F` (centres unmarked) [Example V-42, 2-Chloro-N-(2-methylcyclopropyl)-5-(trifluoromethyl)pyrimidin-4-amine], the chromatographic logP in series [1] is 3.02.
Same read-out and setting: next, `Cc1ccc(Nc2ncc(Cl)c(NC3CC3)n2)cc1Br` [VII-4, 5-Chloro-N^2-[3-bromo-4-(methyl)phenyl]-N^4-cyclopropylpyrimidine-2,4-diamine]: 2.91.
With `C[C@@H]1COC(=O)N1c1cccc(Nc2ncc(Cl)c(NC3CCC3)n2)c1` [Example 102], the log p in series [1] was 1.56[a].
The same measure, in the same setting: the figure for `O=C1CCCCN1c1cccc(Nc2ncc(F)c(NC3CCC3)n2)c1` [Example 58] is 1.29[a].
For the molecule `Clc1ccc(Nc2ncc(Cl)c(NC3CC3)n2)cc1Br` [VII-6, N^2-(3-Bromo-4-chlorophenyl)-5-chloro-N^4-cyclopropylpyrimidine-2,4-diamine], in series [1], the chromatographic logP came to 3.55.
The same measure, in the same setting: next, `Nc1cccc(N2CCOC2=O)c1` [3-(3-Aminophenyl)-1,3-oxazolidin-2-one]: -0.18; `O=C1CCCN1c1cccc(Nc2ncc(C(F)F)c(F)n2)c1` [VI-3, 1-(3-{[5-(Difluoromethyl)-4-fluoropyrimidin-2-yl]amino}phenyl)pyrrolidin-2-one]: 2.28.
The same measure, in the same setting: next, `Clc1ncc(Cl)c(N2CCCCC2)n1` [Example V-36, 2,5-Dichloro-4-(piperidin-1-yl)pyrimidine]: 3.52.
In series [1], `CC1(C)CC1Nc1nc(Cl)ncc1Cl` (centres unmarked) [Example V-27, 2,5-Dichloro-N-(2,2-dimethylcyclopropyl)pyrimidin-4-amine] returned a chromatographic logP of 3.04.
In the case of `CC(C)C1COC(=O)N1c1cccc(Nc2ncc(Cl)c(NC3CC3)n2)c1` (centres unmarked) [Example 39], the log p in series [1] was 2.13[a].
Regarding `O=C1CCC(CO)N1c1cccc(Nc2ncc(Cl)c(NC3CC3)n2)c1` (centres unmarked) [Example 86], the log p in series [1] was 0.98[a].
In series [1], `CC1(C)CC(=O)N(c2cccc(N)c2)C1=O` [1-(3-Aminophenyl)-3,3-dimethylpyrrolidine-2,5-dione] yielded a chromatographic logP of 0.86.
Same read-out and setting: next, `CCC1CCC(=O)N1c1cccc(N)c1` (centres unmarked) [1-(3-Aminophenyl)-5-ethylpyrrolidin-2-one]: 0.94.
As for `FC(F)CNc1nc(Cl)ncc1Cl` [Example V-4, 2,5-Dichloro-N-(2,2-difluoroethyl)pyrimidin-4-amine], the “log P (pH 2.3)” value in series [1] turned out to be 1.96.
`CC(Nc1nc(Cl)ncc1Cl)C(F)(F)F` (centres unmarked) [Example V-37, 2,5-Dichloro-N-(1,1,1-trifluoropropan-2-yl)pyrimidin-4-amine]: the chromatographic logP in series [1] was 2.66.
As for `COCC(C)Nc1nc(Nc2cccc(N3CCCC3=O)c2)ncc1Cl` (centres unmarked) [Example 2], in series [1], the log p is 1.53[a].
Same read-out and setting: the figure for `CCCNc1nc(Cl)ncc1Cl` [Example V-38, 2,5-Dichloro-N-propylpyrimidin-4-amine] is 2.42.
Regarding `CN(c1nc(Cl)ncc1Cl)C1CC1` [Example V-26, 2,5-Dichloro-N-methyl-N-cyclopropylpyrimidin-4-amine], in series [1], the chromatographic logP stood at 2.82.
Consider `CC(C)[C@H]1COC(=O)N1c1cccc(Nc2ncc(Cl)c(N(C)C3CC3)n2)c1` [Example 115], for which the log p in series [1] was 3.09[a].
The molecule `O=C1CCCN1c1cccc(Nc2ncc(C(F)(F)F)c(Cl)n2)c1` [VI-1, 1-(3-{[4-Chloro-5-(trifluoromethyl)pyrimidin-2-yl]amino}phenyl)pyrrolidin-2-one] had a chromatographic logP in series [1] of 2.98.
Turning to `O=C1CCC(c2ccccc2)N1c1cccc(Nc2ncc(Cl)c(NC3CC3)n2)c1` (centres unmarked) [Example 87], the log p in series [1] is 2.1[a].
As for `Clc1ncc(Cl)c(N2CCSCC2)n1` [Example V-32, 4-(2,5-Dichloropyrimidin-4-yl)thiomorpholine], in series [1], the chromatographic logP turned out to be 2.84.
On the same count and under the same terms, the figure for `Clc1cnc(Nc2cccc(Br)c2)nc1NC1CC1` [VII-5, N^2-(3-Bromophenyl)-5-chloro-N^4-cyclopropylpyrimidine-2,4-diamine] is 2.91; for `CCC(CC(C)C(=O)OC)[N+](=O)[O-]` (centres unmarked) [Methyl 2-methyl-4-nitrohexanoate] it is 2.23.
The same measure, in the same setting: next, `O=C1CCCN1c1cc([N+](=O)[O-])ccc1F` [1-(2-Fluoro-5-nitrophenyl)pyrrolidin-2-one]: 1.47.

For the origin of these results see patent US20110245242A1, “Heterocyclically Substituted Anilinopyrimides” (Bayer CropScience AG, priority 2008, published 2011).
